Results: patent publication US20250213474A1, “COMPOSITIONS AND METHODS FOR METAL CONTAINING FORMULATIONS CAPABLE OF MODULATING IMMUNE RESPONSE” (The Regents of the University of Michigan, priority 2021, published 2025)

How the values were obtained:
CT26 colon cancer cells [1] = test: CT26 tumor model, I.V. administration of CMP; assay type: in vivo; conditions: free CDA 100 μg; CMPCDA 20 μg
Description: (FIG. 22A) CT26 tumor-bearing BALB/c mice were treated with CDA+ Mn^2+ or CMPCDA, I.V. on days 9, 12, and 15. […] (FIGS. 22D-22F) Tumor growth (FIGS. 22D-22E) and animal survival (FIG. 22F) were Monitored over time. (FIG. 22G) Survivors re-challenged with CT26 tumor cells on day 145 were monitored for tumor Growth and survival.
For CT26 murine tumor model, female BALB/c mice of age 6-8 weeks (Jackson Laboratories) were inoculated with 1.5×10^5 CT26 colon cancer cells subcutaneously on the right back flank. […] Tumor-bearing mice were randomly assigned to different treatment groups. Indicated drugs or formulations were administrated via indicated route at indicated time points. Tumor size and survival were monitored every 2-4 days. Tumor size was calculated based on equation: volume=length×width^2×0.5. Animals were euthanized when the tumor reached 1.5 cm in diameter or when animals became moribund with severe weight loss or un-healing ulceration.
To address this issue, we evaluated the therapeutic effect of CMP after I.V. administration. CT26 tumor-bearing BABL/c mice were treated I.V. on days 9, 12, and 15 with 20 μg CDA and 10 μg Mn^2+ either in CMPCDA or soluble form (FIG. 22A).

NOOC1 tumor cells = test: NOOC1 ICB-resistant squamous cell carcinoma model; assay type: in vivo, C57BL/6 mice; conditions: CDA dose 5 μg I.T. or 20 μg I.V., days 9, 12, 16, 20
Description: NOOC1 was maintained in the IMDM media (Gibco cat #12440053). To make 1L of growth media for NOOC1, 626 ml IMDM base was mixed with 313 ml F-12 nutrient mix (Gibco cat #11765054), 50 ml FBS (Hyclone cat #SH3039603), 10 ml Pen Strep (Thermo Fisher cat #15-140-122), 1.25 ml of 4 mg/ml insulin (Invitrogen cat #12585014), 200 μl of 200 μg/ml hydrocortisone (Sigma-Aldrich cat #H0888-1G), and 50 μl of 100 μg/ml EGF (EMD Millipore cat #01-107). For in vivo implantation, Matrigel (Thermo Fisher cat #CB-40230) was thawed overnight at 4° C. On the day of injection, NOOC1 was washed once with PBS and mixed with Matrigel to reach a density of 2×10^7 cells/ml. Each mouse was inoculated subcutaneously with 2×10^6 cells (100 μl). Tumor size and survival were monitored every 2 or 3 days as indicated above.
To further evaluate the potency of CMP, we performed head-to-head comparison studies between CMPCDA and other STING-activating formulations. C57BL/6 mice were inoculated at S.C. flank with 3×10^5 B16F10 tumors cells, and we administered three doses of CMPCDA on three-day intervals via either I.T. route when the average tumor volume reached 153±17 mm^3 (FIGS. 23A-23E) or via I.V. route when the average tumor volume reached 63±7 mm^3. (FIGS. 23F-23J)). […]

CT26 colon cancer cells [2] = test: CT26 colon tumor model, metal ion-CDA combinations and coordination formulations; assay type: in vivo, Balb/c mice; design: concentration or dose not given beside the values; conditions: three doses intratumoral on day 9, 12, 15
Description: FIGS. 6A-6D: Enhanced STING activation and cancer therapy efficacy by Co^2+ and Mn^2+ in Vivo. (FIG. 6A) individual tumor growth curve after three doses of intratumor injection of the indicated formulation at day 9, 12, 15 after tumor inoculation. (FIG. 6B) Serum IFN-beta concentration 8 h after the 1st dose of the indicated formulation. (FIGS. 6C-6D) individual tumor growth (FIG. 6C) and survival (FIG. 6D) of the tumor bearing mice after treated with the indicated formulations.
FIGS. 7A-7E: Enhanced STING activation by Co^2+ and Mn^2+ led to improved antigen specific immune response after In vivo. (FIG. 7A) the percentage of AH1-specific CD8+ T cells among PBMC on day 16. (FIG. 7B) IFN-γ secreting cells counts per 5E4 PBMCs after stimulation with AH1 peptides at day 22. […]
All animals were cared for following federal, state, and local guidelines. […] Tumor size and survival were monitored every 2 or 3 days. Tumor size was calculated based on equation: volume=length×width^2×0.5. […] At day 17, the percentages of tumor antigen-specific CD8α+ T cells among PBMC were analyzed using the tetramer staining assay as described previously with peptide-MHC tetramer ([…] AH1) (the NIH Tetramer Core Facility, Atlanta, GA). […]

**Q.** How did the “control of tumor growth by I.V. therapy” value (CT26 colon cancer cells [1]) turn out when Nc1ncnc2c1ncn2[C@@H]1O[C@@H]2COP(=O)(O)O[C@H]3[C@@H](O)[C@H](n4cnc5c(N)ncnc54)O[C@@H]3COP(=O)(O)O[C@H]2[C@H]1O [free CDA, cyclic-di-AMP] was run?
**A.** The value was “could not control tumor growth”.

**Q.** And the “anti-tumor efficacy in NOOC1 model” value (NOOC1 tumor cells)?
**A.** The value was “refractory”.

**Q.** And the survival rate (CT26 colon cancer cells [2])?
**A.** The survival rate was 20%.
